Data as given in US20240109898A1, “SUBSTITUTED PYRAZOLO[1,5-A]PYRIMIDINE-7-AMINE DERIVATIVES, COMPOSITIONS AND PHARMACEUTICAL USES THEREOF” (SHANGHAI HAIYAN PHARMACEUTICAL TECHNOLOGY CO., LTD., priority 2021, published 2024).

Experiments:
CDK9/CycT = CDK9/CycT (Homo sapiens (Human), UniProt P50750); test: LANCE Ultra kinase activity inhibition assay, CDK9/CycT; type: biochemical; details: ATP 10 μM, highest compound concentration 1 μM
Protocol: (§1) In the following LANCE Ultra test methods, kinase reagents were purchased from Carna Bioscience, reaction substrates and detection reagents were purchased from PerkinElmer, and the remaining reagents were purchased from Thermo scientific.
The inhibiting effects on the kinase activity of CDK1/CycB (Carna bioscience, #04-102), CDK2/CycA (Carna bioscience, #04-103) and CDK9/CycT (Carna bioscience, #04-110) were determined by using LANCE Ultra method.
The kinase activity test was performed using a system (10 μL) containing the following components: substrate diluent prepared by mixing CDK kinase diluent, Ulight-Myelic basic protein (Perkin Elmer, #TRF-0109, hereinafter referred to as U-MBP) and ATP (Thermo scientific, #PV3227); and the compounds (i.e., analyte) prepared in the examples of the present disclosure. The assay for each kinase includes three test groups, i.e., a background group (Blank), a non-inhibition group (PC), and compound testing group (Test). The components included in each test group were as follows:
(§2) Working concentrations of the respective components of the Test groups in different kinase reactions were as follows.
(§3) Compounds: 10 mM of the compound to be tested was dissolved at room temperature and diluted with DMSO to gradient concentrations, followed by diluting with deionized water to prepare a 4× working solution of the compound, and the content of DMSO was 2%. The highest concentration of compound used in the CDK1 and CDK2 assays was 10 μM, and that in CDK9 assay was 1 μM.
1.33×reaction buffer: the components include 26.7 mM of MOPS, 6.67 mM of MgCl2, and 0.0133% Tween-20, which were stored in a 4° C. refrigerator and protected from light after preparation. Freshly prepared DTT was added to a final concentration of 5.33 mM before use.
(§4) The working concentration of DMSO in the reaction was 0.5%.
(§5) The above-mentioned components, after being mixed, were placed on a shaker and incubated at room temperature in the dark for 1 h. 10 μL of test solution was then added to all test groups (including Blank, PC and Test groups).
10 μL of test solution contains the following components: 16 mM of EDTA (Thermo scientific, #15575), 1 nM of phosphorylated U-MBP protein antibody (Perkin Elmer, #TRF-0201), and 1× detection damping fluid (Perkin Elmer, #CR97-100).
After the test solution was added, the solution was placed on a shaker and continually incubated at room temperature for 1 h in the dark. At the end of incubation, Victor X5 fluorescence microplate reader of Perkin Elmer was used to read the signal; the wavelength of excitation light was 320 nm, and the wavelengths of emission light were 615 nm and 665 nm. The inhibition rate was calculated as below.
1. For all groups, a value of 665 nm/615 nm (hereinafter referred to as Ratio) was calculated, and an inhibition rate was calculated based on the Ratio of each group;
(§6) 2. Inhibition rate=(PCRatio-TestRatio)/(PCRatio-BlankRatio)*100%; and
(§7) 3. XLFIT 5.0 software (IDBS, UK) was used to fit a graph by using the logarithmic value of the compound concentration as the X-axis and the inhibition rater as the Y-axis, and a four-parameter model was used to calculate the half inhibitory concentration IC50 of the compound.

CDK1/CycB = CDK1/CycB (Homo sapiens (Human), UniProt P06493); test: LANCE Ultra kinase activity inhibition assay, CDK1/CycB; type: biochemical; details: ATP 4 μM, highest compound concentration 10 μM
Description: as §1
(§8) The assay for each kinase includes three test groups, i.e., a background group (Blank), a non-inhibition group (PC), and compound testing group (Test). The components included in each test group were as follows:
as §2, §3, §4, §5
(§9) After the test solution was added, the solution was placed on a shaker and continually incubated at room temperature for 1 h in the dark. […] The inhibition rate was calculated as below.
as §6, §7

CDK2/CycA = CDK2/CycA (Homo sapiens (Human), UniProt P24941); test: LANCE Ultra kinase activity inhibition assay, CDK2/CycA; type: biochemical; details: ATP 10 μM, highest compound concentration 10 μM
Description: as §1, §8, §2, §3, §4, §5, §9, §6, §7

[1] = In vivo pharmacokinetics in mice; details: mouse, plasma, po, male ICR mice, intragastric 10 mg/kg; for AUC(0-t): read-out: Area under the oral curve AUC0-t; for Cmax: read-out: Oral maximum plasma concentration Cmax(ng/mL)
Protocol: To investigate the pharmacokinetic behaviors of the compounds according to the present disclosure in mice and evaluate the pharmacokinetic characteristics thereof, the plasma concentrations of the compounds according to the present disclosure in mice at different time points after intravenous injection and intragastric administration of the compounds were determined by LC/MS/MS.
Experimental Protocol: • Experimental animals: healthy adult male ICR mice (12 mice with body weight of 30-40 g, free water and diet for intravenous injection group, and fasted overnight for intragastric administration group, free water and diet after 4 hours of administration) were provided by Beijing Vital River Laboratory Animal Co. LTD; • Administration route and dosage: the ICR mice were administrated intravenously via the tail vein (2 mg/kg, 5% DMSO, pH 4.5 20% Captisol) and intragastrically (10 mg/kg, 5% DMSO, pH 4.5 20% Captisol).
Blood sample collection: prior to the administration, animals satisfying the experimental requirements were selected, weighed and marked. Before collecting blood samples, the mice were tied together, and the blood of each administrated mouse was collected at the respective scheduled time points (for the intravenous administration, the blood was collected at 0.083 h, 0.25 h, 0.5 h, 1 h, 2 h, 4 h, 6 h, 7.5 h, and 24 h after the administration, respectively, for a total of 9 time points; for the intragastric administration, the blood was collected at 0.083 h, 0.25 h, 0.5 h, 1 h, 2 h, 4 h, 6 h, 7.5 h, and 24 h after the administration, respectively, for a total of 9 time points), about 100 μL of blood was collected from orbit. The blood was transferred to a 1.5 mL tube, which was pre-filled with K2EDTA, centrifuged for 4 minutes (8000 rpm, 4° C.), and the plasma removed within 15 minutes, which all the steps were finished in 15 minutes after the collection of blood samples. All samples were stored in −20° C. refrigerator before sample analysis. The drug concentrations were determined using the LC/MS/MS method, the pharmacokinetic parameters of the compounds of some examples of the present disclosure in mice at the same dosage and administration routes were lists in Table 3: […]

[2] = tested on: MV4-11 acute myeloid leukemia xenografts; test: In vivo pharmacodynamic assay, MV4-11 subcutaneous xenograft; set-up: species or system BALB/c nude mice; details: Table 5, oral, once a day
Protocol: In vivo pharmacodynamic assays were performed on (CDX)BALB/c nude mice implanted subcutaneously with MV4-11 acute myeloid leukemia […] xenografts derived from human tumor cell lines.
Experimental protocol: BALB/c nude mice, female, 6-10 weeks old, with weight of approximately 20-23 grams, were maintained in a specific pathogen-free environment, 5 mice in each cage, and 2 cages with 10 mice as one group. All the cages, bedding and water were disinfected before use. All animals had free access to a standard certified commercial laboratory diet. […] Each mouse was implanted subcutaneously with tumor cells (1×10^7 0.1 ml+Matrigel 0.1 ml) in the right flank for tumor growth. When the mean tumor volume reached approximately 165 mm^3, the tumors were randomly grouped according to body weight and tumor volume, and the administration of the compounds began. Test compounds were administered via oral gavage daily. Antitumor efficacy was determined by dividing the mean tumor volume increase of the animals treated with the compound by the mean tumor volume increase of untreated animals.
Tumor volumes were measured twice a week with two-dimensional calipers, and volumes were measured in cubic millimeters. Tumor volume TV=0.5a×b^2, where a represent a long diameter of the tumor and b represents a short diameter of the tumor.
Relative tumor proliferation rate T/C (%), i.e., a percentage value of relative tumor volume of treatment group to relative tumor volume of control group at a certain time point, can be calculated based on an equation of T/C %=TRTV/CRTV×100 (TRTV: mean RTV in treatment group; CRTV: mean RTV in solvent control group; RTV=Vt/V0, V0 being the tumor volume of the animal at the time of grouping, Vt being the tumor volume of the animal after treatment).
Body weight change (%) of tumor-bearing animals was calculated as follows:
(weight at measurement−weight at grouping)/weight at grouping×100.

CDK1/CycB, sequence (P06493 whole entry): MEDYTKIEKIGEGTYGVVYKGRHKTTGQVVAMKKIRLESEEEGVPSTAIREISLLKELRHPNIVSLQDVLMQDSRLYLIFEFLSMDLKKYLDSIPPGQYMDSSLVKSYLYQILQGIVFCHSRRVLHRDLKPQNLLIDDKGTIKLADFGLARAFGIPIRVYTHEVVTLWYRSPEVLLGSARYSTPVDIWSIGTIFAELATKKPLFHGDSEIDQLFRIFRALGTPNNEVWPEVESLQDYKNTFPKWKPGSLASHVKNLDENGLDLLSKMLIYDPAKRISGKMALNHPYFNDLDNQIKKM
CDK1/CycB, sequence (P14635 whole entry partner): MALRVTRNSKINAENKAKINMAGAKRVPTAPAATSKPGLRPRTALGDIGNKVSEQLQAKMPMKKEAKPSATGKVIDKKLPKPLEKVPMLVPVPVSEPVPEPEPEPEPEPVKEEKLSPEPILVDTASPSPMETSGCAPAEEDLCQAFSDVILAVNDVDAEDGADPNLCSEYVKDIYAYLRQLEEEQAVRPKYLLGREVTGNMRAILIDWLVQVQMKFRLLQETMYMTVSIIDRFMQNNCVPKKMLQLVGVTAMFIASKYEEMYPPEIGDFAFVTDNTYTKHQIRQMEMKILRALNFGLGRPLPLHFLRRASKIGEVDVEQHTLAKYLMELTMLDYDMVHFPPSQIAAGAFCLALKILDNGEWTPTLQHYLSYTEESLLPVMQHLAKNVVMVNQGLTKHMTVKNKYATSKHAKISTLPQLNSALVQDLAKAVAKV
CDK9/CycT, sequence (P50750 whole entry): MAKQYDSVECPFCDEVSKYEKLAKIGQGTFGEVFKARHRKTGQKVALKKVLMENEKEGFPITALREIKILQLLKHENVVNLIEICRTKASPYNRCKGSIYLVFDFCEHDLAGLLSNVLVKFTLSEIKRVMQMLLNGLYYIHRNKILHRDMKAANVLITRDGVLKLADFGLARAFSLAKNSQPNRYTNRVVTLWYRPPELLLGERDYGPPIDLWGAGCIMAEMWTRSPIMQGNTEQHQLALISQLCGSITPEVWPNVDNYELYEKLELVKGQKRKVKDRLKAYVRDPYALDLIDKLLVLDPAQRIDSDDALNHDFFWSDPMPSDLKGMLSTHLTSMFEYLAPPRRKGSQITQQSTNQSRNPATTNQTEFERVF
CDK9/CycT, sequence (O60563 whole entry partner): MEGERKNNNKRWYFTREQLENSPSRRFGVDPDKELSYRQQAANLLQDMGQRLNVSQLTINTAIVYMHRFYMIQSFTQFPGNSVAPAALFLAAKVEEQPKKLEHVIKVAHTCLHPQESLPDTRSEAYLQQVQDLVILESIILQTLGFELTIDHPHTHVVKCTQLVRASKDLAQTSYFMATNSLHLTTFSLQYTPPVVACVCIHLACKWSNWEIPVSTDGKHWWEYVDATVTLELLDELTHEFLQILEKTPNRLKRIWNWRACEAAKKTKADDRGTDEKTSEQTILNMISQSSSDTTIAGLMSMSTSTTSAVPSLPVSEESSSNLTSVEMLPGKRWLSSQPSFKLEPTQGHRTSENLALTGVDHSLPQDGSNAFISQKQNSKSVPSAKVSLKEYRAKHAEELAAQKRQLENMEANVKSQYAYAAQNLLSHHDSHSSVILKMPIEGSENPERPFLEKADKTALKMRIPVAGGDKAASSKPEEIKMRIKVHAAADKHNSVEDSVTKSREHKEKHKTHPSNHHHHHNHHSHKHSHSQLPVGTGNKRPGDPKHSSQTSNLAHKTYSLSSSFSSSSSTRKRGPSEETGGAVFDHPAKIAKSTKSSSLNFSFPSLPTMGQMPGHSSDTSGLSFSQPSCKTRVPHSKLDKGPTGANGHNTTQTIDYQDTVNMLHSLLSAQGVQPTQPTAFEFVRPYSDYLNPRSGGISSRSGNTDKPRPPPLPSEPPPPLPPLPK

Row | IC50 (CDK9/CycT) [µM] | IC50 (CDK1/CycB) [µM] | IC50 (CDK2/CycA) [µM] | AUC(0-t) [1] [ng·h/mL] | Cmax [1] [ng/mL] | Structure (SMILES) | Average tumor weight ([2]; 12.5 mpk) [g] | T/C(%) ([2]; 12.5 mpk) | Average tumor weight ([2]; 25 mpk) [g] | T/C(%) ([2]; 25 mpk) | Average tumor weight ([2]; 5 mpk) [g] | T/C(%) ([2]; 5 mpk) | Average tumor weight ([2]; 10 mpk) [g] | T/C(%) ([2]; 10 mpk)
1 | 0.008 | 1.04 | 1.55 | 7860 | 740 | Cc1cnn2c(N[C@H]3CC[C@H](N)C3)cc(C(C3CC3)C3CC3)nc12 [Compound Z-9] | – | – | – | – | – | – | – | –
2 | – | – | – | 1190 | 433 | CCC(CC)c1cc(N[C@H]2CC[C@H](N)C2)n2nccc2n1 [Compound D, reference compound] | 0.43 | 35.91 | 0.04 | 2.90 | – | – | – | –
3 | – | – | – | 2960 | 379 | C[C@H](c1cc(N[C@H]2CC[C@H](N)C2)n2nccc2n1)C1CCC1 [Compound Z-11-P1] | – | – | – | – | – | – | – | –
4 | 0.007 | – | – | 1700 | 690 | C[C@H](c1cc(N[C@H]2CC[C@H](N)C2)n2nccc2n1)C1CC1 [Compound Z-5-2] | – | – | – | – | 0.72 | 59.25 | 0.04 | 3.45
5 | 0.056 | 8.22 | 6.82 | 9410 | 696 | Cc1cnn2c(N[C@H]3CC[C@H](N)C3)cc([C@@H](C)C3CC3)nc12 [Compound Z-32-P2] | – | – | – | – | – | – | – | –
6 | 0.013 | 2.48 | 3.78 | 6090 | 409 | C=CC(C)(C)c1cc(N[C@H]2CC[C@H](N)C2)n2ncc(Cl)c2n1 [Compound Z-56] | – | – | – | – | – | – | – | –
7 | 0.01 | 1.71 | 1.97 | 2060 | 786 | C[C@H](c1cc(N[C@H]2C[C@H](N)C2)n2nccc2n1)C1CC1 [Compound Z-62-P1] | – | – | – | – | – | – | – | –
